Reference: PubChem BioAssay (NCI)
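Five compound concentrations were applied to cells in 96-well plates for 48 hours; endpoints were derived by simple linear interpolation of the resulting dose-response curve. TGI marks complete inhibition of growth.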

Experiments:
Assay in all cases: growth of human tumour cells (NCI), 48 h
HCT-15 colon = test system: HCT-15 colon
MALME-3M melanoma = test system: MALME-3M melanoma
HS 578T breast = test system: HS 578T breast
IGROV1 ovarian = test system: IGROV1 ovarian
U251 CNS = test system: U251 CNS
MDA-N = test system: MDA-N
HOP-92 NSCLC = test system: HOP-92 NSCLC
HT29 colon = test system: HT29 colon
CAKI-1 renal = test system: CAKI-1 renal
NCI/ADR-RES ovarian = test system: NCI/ADR-RES ovarian
DU-145 prostate = test system: DU-145 prostate
NCI-H23 lung = test system: NCI-H23 lung
MOLT-4 leukemia = test system: MOLT-4 leukemia
HCC-2998 colon = test system: HCC-2998 colon
PC-3 prostate = test system: PC-3 prostate
SNB-75 CNS = test system: SNB-75 CNS
OVCAR-5 ovarian = test system: OVCAR-5 ovarian
SR leukemia = test system: SR leukemia

SMILES | TGI (HCT-15 colon) | TGI (MALME-3M melanoma) | TGI (HS 578T breast) | TGI (IGROV1 ovarian) | TGI (U251 CNS) | TGI (MDA-N) | TGI (HOP-92 NSCLC) | TGI (HT29 colon) | TGI (CAKI-1 renal) | TGI (NCI/ADR-RES ovarian) | TGI (DU-145 prostate) | TGI (NCI-H23 lung) | TGI (MOLT-4 leukemia) | TGI (HCC-2998 colon) | TGI (PC-3 prostate) | TGI (SNB-75 CNS) | TGI (OVCAR-5 ovarian) | TGI (SR leukemia)
COc1cc([C@@H]2c3cc4c(cc3[C@@H](N=Cc3ccc(C(=O)O[C@@H](C(=O)O[C@H]5C[C@@]6(O)[C@@H](OC(=O)c7ccccc7)[C@@H]7[C@]8(OC(C)=O)CO[C@@H]8C[C@H](O)[C@@]7(C)C(=O)[C@H](OC(C)=O)C(=C5C)C6(C)C)[C@@H](NC(=O)c5ccccc5)c5ccccc5)cc3)[C@H]3COC(=O)[C@H]23)OCO4)cc(OC)c1O | > 50 µM | > 50 µM | > 50 µM | > 50 µM | > 16.9 µM | 0.0663 µM | > 50 µM | 1.92 µM | > 50 µM | > 50 µM | > 42.5 µM | > 18.5 µM | > 50 µM | 2.92 µM |  |  |  | 
COc1ccc(N=N/C(=N/NC(=O)c2cc(Cl)ccc2C(=O)c2ccccc2)c2ccc(N(CCC#N)CCC#N)cc2C)cc1 | 65.7 µM | 94.7 µM | > 100 µM | 27.7 µM | > 100 µM | > 100 µM |  | 60.8 µM | 46 µM | 59.1 µM | > 100 µM | 61.9 µM | 33.8 µM | 70.8 µM | 41.4 µM | > 100 µM | 70 µM | 
c1ccc(CCN2CCN=C2Cc2ccccc2)cc1 | > 100 µM | > 100 µM | > 100 µM | > 100 µM | > 100 µM | > 100 µM | 93.8 µM | > 100 µM |  | > 100 µM | > 100 µM | > 100 µM |  | 38.2 µM |  | > 100 µM | > 100 µM | > 100 µM
N#CCOc1cccc(C2(N3CC=CCC3)CCCCC2)c1 | > 100 µM | > 100 µM | > 100 µM | > 100 µM | > 100 µM | > 100 µM |  | > 100 µM | > 100 µM | > 100 µM | > 100 µM | > 100 µM | > 100 µM |  | > 100 µM |  | > 100 µM | > 100 µM
CO[C@H]1C[C@H](n2cc(C)c(=O)[nH]c2=O)O[C@@H]1CO | > 100 µM | > 100 µM | > 100 µM | > 100 µM | > 100 µM | > 100 µM |  | > 100 µM | > 100 µM | > 100 µM | > 100 µM | > 100 µM | > 100 µM | > 100 µM | > 100 µM | > 100 µM | > 100 µM | > 100 µM
CC(C)(C)c1cc(/C=C/C(=O)CC(=O)/C=C/c2cc(C(C)(C)C)c(O)c(C(C)(C)C)c2)cc(C(C)(C)C)c1O | > 50 µM |  | > 50 µM | > 50 µM | > 50 µM | > 50 µM |  | > 50 µM |  | > 50 µM | > 50 µM | > 50 µM |  |  | > 50 µM | > 50 µM | > 50 µM | 
CCCCNC(=S)c1ccc(OC(=O)Nc2ccc(Cl)cc2)cc1 | > 100 µM | > 100 µM | > 100 µM | 70.4 µM | > 100 µM | > 100 µM |  | > 100 µM | > 100 µM | > 100 µM | > 100 µM | > 100 µM | > 100 µM | > 100 µM | > 100 µM |  | > 100 µM | > 100 µM
CC1(C)O[C@H]2OC(CO)C(OS(C)(=O)=O)[C@H]2O1 (some centres undefined) | > 100 µM | > 100 µM | > 100 µM | > 100 µM | > 100 µM | > 100 µM | > 100 µM | > 100 µM | > 100 µM | > 100 µM | > 100 µM | > 100 µM |  | > 100 µM | > 100 µM | > 100 µM | > 100 µM | 
Cc1c(O)c(=O)ccn1CCc1c[nH]c2ccccc12 | > 100 µM | 55.4 µM | 54 µM |  | > 100 µM | > 100 µM | 46.5 µM | 32.7 µM | 7.25 µM | 35.6 µM | 35.4 µM | > 100 µM | > 100 µM |  | > 100 µM |  | > 100 µM | 49.2 µM
COc1ccc(/C=N\NC(=O)Nc2cccc3ccccc23)cc1 | > 100 µM | > 100 µM | 61.2 µM | > 100 µM | 36.5 µM | > 100 µM | 42.1 µM | > 100 µM | 35.3 µM | > 100 µM | > 100 µM | > 100 µM |  | > 100 µM | > 100 µM | 34.5 µM | > 100 µM | 
Cc1cc2c(c(C(=O)NCCC(=O)N[C@@H](C)C(=O)OCc3ccccc3)c1)Oc1c(cc(C)cc1C(=O)NCCC(=O)N[C@@H](C)C(=O)OCc1ccccc1)S2 | > 100 µM | > 100 µM | > 100 µM | > 100 µM | > 100 µM | > 100 µM |  | > 100 µM | > 100 µM | > 100 µM | > 100 µM | > 100 µM | > 100 µM | > 100 µM | > 100 µM | > 100 µM | > 100 µM | > 100 µM
